Source: ChEMBL document CHEMBL6134779, “Design of Proteolytic-Resistant Antifungal Peptides by Utilizing Minimum d-Amino Acid Ratios” (J Med Chem, 2024)
In brackets after ≈: the same amount, converted by molar mass. Activity calls are given as the source filed them. No cut-off for these calls is given here.

Assays:
Candida albicans [1] = assay: Antifungal activity against Candida albicans CGMCC 2.2086 assessed as inhibition of fungal growth incubated for 48 hrs in presence of NH4Cl; format: functional
Candida albicans [2] = assay: Antifungal activity against Candida albicans CGMCC 2.2086 assessed as inhibition of fungal growth incubated for 48 hrs in presence of CaCl2; format: functional
Candida albicans [3] = assay: Antibiofilm activity against Candida albicans CGMCC 2.2086 assessed as eradication of mature biofilm at 4X MIC measured after 3 hrs by SYTO 9/propidium iodide staining based fluorescence microscopy; format: functional, organism-based
Candida albicans [4] = assay: Induction of ROS generation in Candida albicans CGMCC 2.2086 measured after 60 mins by […] dye based fluorescence assay; format: functional, organism-based; settings: dose 0.5-128 µM
Candida albicans [5] = assay: Antifungal activity against Candida albicans CGMCC 2.2086 assessed as inhibition of fungal growth incubated for 2 hrs in presence of chymotrypsin; format: functional, organism-based
[6] = Stability of the compound in ZnCl2 assessed as change in secondary structure by CD spectra analysis; format: physicochemical
Candida albicans [7] = assay: Antifungal activity against Candida albicans CGMCC 2.2086 assessed as inhibition of fungal growth incubated for 48 hrs in presence of KCl; format: functional
Candida albicans [8] = assay: Induction of Candida albicans CGMCC 2.2086 cell wall permeabilization by NPN probe based assay; format: functional, organism-based; settings: dose 1-128 µM
Candida albicans [9] = assay: Antifungal activity against Candida albicans CGMCC 2.2086 assessed as inhibition of fungal growth incubated for 48 hrs in presence of MgCl2; format: functional
Candida albicans [10] = assay: Antifungal activity against Candida albicans CGMCC 2.2086 infected in C57BL/6 mouse keratitis model assessed as reduction in mycelia in the eyes at 5 mg/ml administered as 10 uL eye drop every 5 mins for first 1 hr and every 30 mins for next 7 hrs by Schiff staining based assay; format: functional, organism-based; settings: route ou, time 8.0 hrs
Candida albicans [11] = assay: Ratio of MIC95 for antifungal activity against Candida albicans CGMCC 2.2086 in presence of MgCl2 to MIC95 for MIC95 for antifungal activity against Candida albicans CGMCC 2.2086; format: functional
Candida albicans [12] = assay: Antifungal activity against Candida albicans SP3931 assessed as inhibition of fungal growth incubated for 48 hrs; format: functional
Candida albicans [13] = assay: Antifungal activity against Candida albicans CGMCC 2.2086 assessed as inhibition of fungal growth incubated for 48 hrs in presence of FeCl3; format: functional
Candida albicans [14] = assay: Resistance development in Candida albicans CGMCC 2.2086 measured after 30 passages by broth microdilution method; format: functional, organism-based
Candida albicans [15] = assay: Antifungal activity against Candida albicans CGMCC 2.2086 assessed as inhibition of fungal growth incubated for 2 hrs in presence of trypsin; format: functional, organism-based
Candida albicans [16] = assay: Antifungal activity against Candida albicans CGMCC 2.2086 assessed as inhibition of fungal growth incubated for 2 to 4 hrs in presence of 100% serum; format: functional, organism-based; settings: time 2-4 hrs
Candida albicans [17] = assay: Antifungal activity against Candida albicans CGMCC 2.2086 assessed as inhibition of fungal growth incubated for 48 hrs in presence of ZnCl2; format: functional
Cell membrane = assay: Induction of cytoplasmic membrane depolarization in Candida albicans CGMCC 2.2086 at 0.5 to 2X MIC measured up to 3600 secs by DISC3-5 dye based fluorescence assay; format: subcellular; settings: time <= 3600.0 sec

With `CC[C@H](C)[C@H](N)C(=O)N[C@H](C(=O)N[C@H](CCCNC(=N)N)C(=O)N[C@@H](CCCNC(=N)N)C(=O)N[C@@H](Cc1c[nH]cn1)C(=O)N[C@H](C(=O)N[C@H](C(=O)N[C@H](C(=O)N[C@H](C(=O)N[C@H](CCCNC(=N)N)C(=O)N[C@@H](CCCNC(=N)N)C(=O)N[C@@H](Cc1c[nH]cn1)C(=O)N[C@H](C(=O)N[C@H](C(=O)N[C@H](C(=O)N[C@H](C(=O)N[C@H](CCCNC(=N)N)C(=O)N[C@@H](CCCNC(=N)N)C(=O)N[C@@H](Cc1c[nH]cn1)C(=O)N[C@H](C(=O)N[C@H](C(N)=O)[C@@H](C)CC)[C@@H](C)CC)[C@@H](C)CC)[C@@H](C)CC)[C@@H](C)CC)[C@@H](C)CC)[C@@H](C)CC)[C@@H](C)CC)[C@@H](C)CC)[C@@H](C)CC)[C@@H](C)CC` the MIC95 (Candida albicans [1]) was 2 µM, the MIC95 (Candida albicans [2]) was 8 µM and the Activity (Candida albicans [3]) was “Active”. The Activity (Candida albicans [4]) was “Dose-dependent-effect”, the Activity (Candida albicans [5]) was “Active” and the Stability [6] was “Stable”. For the same compound, the MIC95 (Candida albicans [7]) was 4 µM, the Activity (Candida albicans [8]) was “Dose-dependent-effect” and the MIC95 (Candida albicans [9]) was 4 µM. The Activity (Candida albicans [10]) was “Active; Mycelia In The Eyes Was Either Absent Or Minimal”, the Ratio (Candida albicans [11]) was 4 and the MIC95 (Candida albicans [12]) was 2 µM (≈ 5.45 µg/mL). For the same compound, the MIC95 (Candida albicans [13]) was 8 µM, the Activity (Candida albicans [14]) was “inactive” and the Activity (Candida albicans [15]) was “Active”. For the same compound, the “growth inhibition (GI)” value (Candida albicans [16]) was “Active; No Alterations In The Antimicrobial Activity Was Observed In Presence Of Serum”, the MIC95 (Candida albicans [17]) was 4 µM and the Activity (Cell membrane) was “Active”.
